Reference: patent publication US9156856B2, “Apoptosis-inducing agents for the treatment of cancer and immune and autoimmune diseases” (AbbVie Inc., priority 2009, dated 2015)

Molecular target: Bcl-2 (Homo sapiens (Human), UniProt P10415)
Test: Time Resolved-Fluorescence Resonance Energy Transfer (TR-FRET) Bcl-2 binding assay with F-Bak peptide probe
Settings: GST-Bcl-2 1 nM, F-Bak peptide probe 100 nM, Tb-anti-GST antibody 1 nM; Ki by Wang's equation
Description: Determination of the utility of compounds having Formula (I) as binders to and inhibitors of anti-apoptotic Bcl-2 proteins was performed using the Time Resolved-Fluorescence Resonance Energy Transfer (TR-FRET) Assay. Tb-anti-GST antibody was purchased from Invitrogen (Catalog No. PV4216).
Representative compounds were serially diluted in dimethyl sulfoxide (DMSO) starting at 50 μM (2× starting concentration; 10% DMSO) and 10 μL were transferred into a 384-well plate. The samples are then mixed on a shaker for 1 minute and incubated for an additional 3 hours at room temperature. For each assay, the probe/antibody and protein/probe/antibody were included on each assay plate as negative and positive controls, respectively. Fluorescence was measured on the ENVISION plate reader (Perkin Elmer) using a 340/35 nm excitation filter and 520/525 (F-Bak peptide) and 495/510 nm (Tb-labeled […] antibody) emission filters Inhibition constants (Ki) are shown in TABLE 2 below and were determined using Wang's equation (Wang Z.-X. An Exact Mathematical Expression For Describing Competitive Binding Of Two Different Ligands To A Protein Molecule. FEBS Lett. 1995, 360:111-4).
The inhibition constant (Ki) is the dissociation constant of an enzyme-inhibitor complex or a protein/small molecule complex, wherein the small molecule is inhibiting binding of one protein to another protein. So a large K, value indicates a low binding affinity and a small Ki value indicates a high binding affinity.
The compounds are therefore expected to have utility in treatment of diseases during which anti-apoptotic Bcl-2 protein is expressed.

Sequence of Bcl-2 (P10415 whole entry): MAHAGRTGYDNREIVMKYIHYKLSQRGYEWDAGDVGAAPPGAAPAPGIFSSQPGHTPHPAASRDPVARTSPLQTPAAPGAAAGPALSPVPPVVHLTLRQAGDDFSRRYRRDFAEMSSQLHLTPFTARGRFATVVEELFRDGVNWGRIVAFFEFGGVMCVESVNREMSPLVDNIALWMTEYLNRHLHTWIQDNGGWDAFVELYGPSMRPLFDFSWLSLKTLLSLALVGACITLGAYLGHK

O=C(NS(=O)(=O)c1cc([N+](=O)[O-])c(N2CCCCC2)s1)c1ccc(N2CCN(Cc3ccccc3-c3ccc(Cl)cc3)CC2)cc1 [Example 30, 4-{4-[(4′-chloro-1,1′-biphenyl-2-yl)methyl]piperazin-1-yl}-N-[(4-nitro-5-piperidin-1-ylthien-2-yl)sulfonyl]benzamide]
Ki: 269 nM

CC(C)N(C)CC[C@H](CSc1ccccc1)Nc1sc(S(=O)(=O)NC(=O)c2ccc(N3CCN(CC4=C(c5ccc(Cl)cc5)CCC(C)(C)C4)CC3)cc2)cc1[N+](=O)[O-] [Example 9, 4-(4-{[2-(4-chlorophenyl)-5,5-dimethylcyclohex-1-en-1-yl]methyl}piperazin-1-yl)-N-{[5-({(1R)-3-[isopropyl(methyl)amino]-1-[(phenylthio)methyl]propyl}amino)-4-nitrothien-2-yl]sulfonyl}benzamide]
Ki: 0.307 nM

O=C(NS(=O)(=O)c1cccs1)c1ccc(N2CCN(Cc3ccccc3-c3ccc(Cl)cc3)CC2)cc1 [Example 19, 4-{4-[(4′-chloro-1,1′-biphenyl-2-yl)methyl]piperazin-1-yl}-N-(thien-2-ylsulfonyl)benz amide]
Ki: 234 nM

Cc1nc(OC[C@@H]2CN(C(=O)OC(C)(C)C)CCO2)sc1S(=O)(=O)NC(=O)c1ccc(N2CCN(CC3=C(c4ccc(Cl)cc4)CC(C)(C)CC3)CC2)cc1Oc1cccc2[nH]cnc12 [Example 44, tert-butyl (2S)-2-{[(5-{[2-(1H-benzimidazol-4-yloxy)-4-(4-{[2-(4-chlorophenyl)-4,4-dimethylcyclohex-1-en-1-yl]methyl}piperazin-1-yl)benzoyl]sulfamoyl}-4-methyl-1,3-thiazol-2-yl)oxy]methyl}morpholine-4-carboxylate]
Ki: 24.8 nM

CC(C)N(C)CC[C@H](CSc1ccccc1)Nc1sc(S(=O)(=O)NC(=O)c2ccc(N3CCN(Cc4ccccc4-c4ccc(Cl)cc4)CC3)cc2)cc1[N+](=O)[O-] [Example 7, 4-{4-[(4′-chloro-1,1′-biphenyl-2-yl)methyl]piperazin-1-yl}-N-{[5-({(1R)-3-[isopropyl(methyl)amino]-1-[(phenylthio)methyl]propyl}amino)-4-nitrothien-2-yl]sulfonyl}benzamide]
Ki: 0.084 nM

CC(=O)Nc1nc(C)c(S(=O)(=O)NC(=O)c2ccc(N3CCN(Cc4ccccc4-c4ccc(Cl)cc4)CC3)cc2)s1 [Example 11, N-{[2-(acetylamino)-4-methyl-1,3-thiazol-5-yl]sulfonyl}-4-{4-[(4′-chloro-1,1′-biphenyl-2-yl)methyl]piperazin-1-yl}benzamide]
Ki: 177 nM

Cc1nc(OCC2(F)CCOCC2)sc1S(=O)(=O)NC(=O)c1ccc(N2CCN(CC3=C(c4ccc(Cl)cc4)CC(C)(C)CC3)CC2)cc1Oc1cccc2[nH]ncc12 [Example 48, 2-(1H-indazol-4-yloxy)-4-(4-((2-(4-chlorophenyl)-4,4-dimethylcyclohex-1-enyl)methyl)piperazin-1-yl)-N-(2-((4-fluorotetrahydro-2H-pyran-4-yl)methoxy)-4-methylthiazol-5-ylsulfonyl)benzamide]
Ki: 1.64 nM

Cc1cc(C)n2nc(S(=O)(=O)NC(=O)c3ccc(N4CCN(Cc5ccccc5-c5ccc(Cl)cc5)CC4)cc3)nc2n1 [Example 20, 4-{4-[(4′-chloro-1,1′-biphenyl-2-yl)methyl]piperazin-1-yl}-N-[(5,7-dimethyl[1,2,4]triazolo[1,5-a]pyrimidin-2-yl)sulfonyl]benzamide]
Ki: 48.1 nM

Cc1cc(C)n2nc(S(=O)(=O)NC(=O)c3ccc(N4CCN(CC5=C(c6ccc(Cl)cc6)CC(C)(C)CC5)CC4)cc3Oc3cc4cc[nH]c4c(F)c3F)nc2n1 [Example 42, 4-(4-{[2-(4-chlorophenyl)-4,4-dimethylcyclohex-1-en-1-yl]methyl}piperazin-1-yl)-2-[(6,7-difluoro-1H-indol-5-yl)oxy]-N-[(5,7-dimethyl[1,2,4]triazolo[1,5-a]pyrimidin-2-yl)sulfonyl]benzamide]
Ki: 0.039 nM

Cc1c(S(=O)(=O)NC(=O)c2ccc(N3CCN(Cc4ccccc4-c4ccc(Cl)cc4)CC3)cc2)sc2ccc(Br)cc12 [Example 25, N-[(5-bromo-3-methyl-1-benzothien-2-yl)sulfonyl]-4-{4-[(4′-chloro-1,1′-biphenyl-2-yl)methyl]piperazin-1-yl}benzamide]
Ki: 372 nM

Cc1noc(C)c1S(=O)(=O)NC(=O)c1ccc(N2CCN(Cc3ccccc3-c3ccc(Cl)cc3)CC2)cc1 [Example 32, 4-{4-[(4′-chloro-1,1′-biphenyl-2-yl)methyl]piperazin-1-yl}-N-[(3,5-dimethylisoxazol-4-yl)sulfonyl]benzamide]
Ki: 438 nM

Cc1nc(C)c(S(=O)(=O)NC(=O)c2ccc(N3CCN(Cc4ccccc4-c4ccc(Cl)cc4)CC3)cc2)s1 [Example 15, 4-{4-[(4′-chloro-1,1′-biphenyl-2-yl)methyl]piperazin-1-yl}-N-[(2,4-dimethyl-1,3-thiazol-5-yl)sulfonyl]benzamide]
Ki: 282 nM

CN(C)CC[C@H](CSc1ccccc1)Nc1sc(S(=O)(=O)NC(=O)c2ccc(N3CCN(CC=C(c4ccccc4)c4ccccc4)CC3)cc2)cc1[N+](=O)[O-] [Example 3, N-{[5-({(1R)-3-(dimethylamino)-1-[(phenylthio)methyl]propyl}amino)-4-nitrothien-2-yl]sulfonyl}-4-[4-(3,3-diphenylprop-2-enyl)piperazin-1-yl]benzamide]
Ki: 51.7 nM

O=C(NS(=O)(=O)c1nc2ccccc2s1)c1ccc(N2CCN(Cc3ccccc3-c3ccc(Cl)cc3)CC2)cc1 [Example 18, N-(1,3-benzothiazol-2-ylsulfonyl)-4-{4-[(4′-chloro-1,1′-biphenyl-2-yl)methyl]piperazin-1-yl}benzamide]
Ki: 129 nM

O=C(NS(=O)(=O)c1ccc(/C=C/c2ncon2)s1)c1ccc(N2CCN(Cc3ccccc3-c3ccc(Cl)cc3)CC2)cc1 [Example 26, 4-{4-[(4′-chloro-1,1′-biphenyl-2-yl)methyl]piperazin-1-yl}-N-({5-[(E)-2-(1,2,4-oxadiazol-3-yl)vinyl]thien-2-yl}sulfonyl)benzamide]
Ki: 393 nM

Cc1nn(CCCl)c(C)c1S(=O)(=O)NC(=O)c1ccc(N2CCN(Cc3ccccc3-c3ccc(Cl)cc3)CC2)cc1 [Example 27, 4-{4-[(4′-chloro-1,1′-biphenyl-2-yl)methyl]piperazin-1-yl}-N-{[1-(2-chloroethyl)-3,5-dimethyl-1H-pyrazol-4-yl]sulfonyl}benzamide]
Ki: 434 nM

COC(=O)c1ccc(S(=O)(=O)NC(=O)c2ccc(N3CCN(Cc4ccccc4-c4ccc(Cl)cc4)CC3)cc2)n1C [Example 22, methyl 5-{[(4-{4-[(4′-chloro-1,1′-biphenyl-2-yl)methyl]piperazin-1-yl}benzoyl)amino]sulfonyl}-1-methyl-1H-pyrrole-2-carboxylate]
Ki: 188 nM

O=C(NCc1ccc(S(=O)(=O)NC(=O)c2ccc(N3CCN(Cc4ccccc4-c4ccc(Cl)cc4)CC3)cc2)s1)c1ccccc1 [Example 12, N-({5-[(benzoylamino)methyl]thien-2-yl}sulfonyl)-4-{4-[(4′-chloro-1,1′-biphenyl-2-yl)methyl]piperazin-1-yl}benzamide]
Ki: 393 nM

CN(CCSc1ccccc1)C1CCN(S(=O)(=O)NC(=O)c2ccc(N3CCN(Cc4ccccc4-c4ccc(Cl)cc4)CC3)cc2)CC1 [Example 6, 4-{4-[(4′-chloro-1,1′-biphenyl-2-yl)methyl]piperazin-1-yl}-N-[(4-{methyl[2-(phenylthio)ethyl]amino}piperidin-1-yl)sulfonyl]benzamide]
Ki: 704 nM

O=C(NS(=O)(=O)c1csc(C(F)(F)F)c1-c1ccccc1)c1ccc(N2CCN(Cc3ccccc3-c3ccc(Cl)cc3)CC2)cc1 [Example 16, 4-{4-[(4′-chloro-1,1′-biphenyl-2-yl)methyl]piperazin-1-yl}-N-{[4-phenyl-5-(trifluoromethyl)thien-3-yl]sulfonyl}benzamide]
Ki: 37.9 nM

COC1(Cc2cccc(C)c2)CCN(c2ccc(C(=O)NS(=O)(=O)c3cc([N+](=O)[O-])c(N[C@H](CCN(C)C)CSc4ccccc4)s3)cc2)CC1 [Example 2, N-{[5-({(1R)-3-(dimethylamino)-1-[(phenylthio)methyl]propyl}amino)-4-nitrothien-2-yl]sulfonyl}-4-[4-methoxy-4-(3-methylbenzyl)piperidin-1-yl]benzamide]
Ki: 82.9 nM

Cc1nc(OC[C@@H]2CN(C(=O)OC(C)(C)C)CCO2)sc1S(=O)(=O)NC(=O)c1ccc(N2CCN(CC3=C(c4ccc(Cl)cc4)CC(C)(C)CC3)CC2)cc1Oc1cnc2[nH]ccc2c1 [Example 43, tert-butyl (2S)-2-{[(5-{[4-(4-{[2-(4-chlorophenyl)-4,4-dimethylcyclohex-1-en-1-yl]methyl}piperazin-1-yl)-2-(1H-pyrrolo[2,3-b]pyridin-5-yloxy)benzoyl]sulfamoyl}-4-methyl-1,3-thiazol-2-yl)oxy]methyl}morpholine-4-carboxylate]
Ki: 46.5 nM

Cc1nn(C)c(Cl)c1S(=O)(=O)NC(=O)c1ccc(N2CCN(Cc3ccccc3-c3ccc(Cl)cc3)CC2)cc1 [Example 29, 4-{4-[(4′-chloro-1,1′-biphenyl-2-yl)methyl]piperazin-1-yl}-N-[(5-chloro-1,3-dimethyl-1H-pyrazol-4-yl)sulfonyl]benzamide]
Ki: 340 nM
